The results in this text go back to patent US9682995B2, “Amino-substituted isothiazoles” (BAYER PHARMA AKTIENGESELLSCHAFT, priority 2013, dated 2017).

SMILES strings stand for the structures.

In test [1] the test system is spindle assembly checkpoint. The test can be described thus: SAC-Formation - Paclitaxel-Induced Assay. The class given is cell-based. To be noted: Homo sapiens; HeLa cells, paclitaxel 0.05 μM, 24 h, phosphorylated histone H3 on serine 10. The procedure, abridged:
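HeLa cells were plated overnight, then given paclitaxel (0.05 μM final) plus compound (0.005-20 μM, 0.5% DMSO) for 24 h at 37° C. Fixed cells were stained for phospho-histone H3 Ser10 and with Hoechst, then imaged to give mitotic index. A fall in mitotic cells marks SAC breakthrough, and values were fit with a four-parameter Hill equation.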

The target in a further test is human kinase Mps-1 (Homo sapiens (Human), UniProt P33981). The test can be described thus: Mps-1 kinase assay (TR-FRET). The class given is biochemical. To be noted: 10 μM ATP; read-out: Mps1 avg (IC50 [mol/l]). The gist of the method: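 GST-tagged full-length human Mps-1 (~0.5 nM) preincubated 15 min with compound, then reacted 60 min at 22 °C with 10 μM ATP and 1 μM biotinylated peptide in Hepes pH 7.7 buffer. Phosphoproduct detected by TR-FRET (Eu anti-phospho-Ser/Thr, SA-XLent); 665/620 ratio normalised to no-inhibitor and no-enzyme controls.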
Sequence of human kinase Mps-1 (P33981 whole entry): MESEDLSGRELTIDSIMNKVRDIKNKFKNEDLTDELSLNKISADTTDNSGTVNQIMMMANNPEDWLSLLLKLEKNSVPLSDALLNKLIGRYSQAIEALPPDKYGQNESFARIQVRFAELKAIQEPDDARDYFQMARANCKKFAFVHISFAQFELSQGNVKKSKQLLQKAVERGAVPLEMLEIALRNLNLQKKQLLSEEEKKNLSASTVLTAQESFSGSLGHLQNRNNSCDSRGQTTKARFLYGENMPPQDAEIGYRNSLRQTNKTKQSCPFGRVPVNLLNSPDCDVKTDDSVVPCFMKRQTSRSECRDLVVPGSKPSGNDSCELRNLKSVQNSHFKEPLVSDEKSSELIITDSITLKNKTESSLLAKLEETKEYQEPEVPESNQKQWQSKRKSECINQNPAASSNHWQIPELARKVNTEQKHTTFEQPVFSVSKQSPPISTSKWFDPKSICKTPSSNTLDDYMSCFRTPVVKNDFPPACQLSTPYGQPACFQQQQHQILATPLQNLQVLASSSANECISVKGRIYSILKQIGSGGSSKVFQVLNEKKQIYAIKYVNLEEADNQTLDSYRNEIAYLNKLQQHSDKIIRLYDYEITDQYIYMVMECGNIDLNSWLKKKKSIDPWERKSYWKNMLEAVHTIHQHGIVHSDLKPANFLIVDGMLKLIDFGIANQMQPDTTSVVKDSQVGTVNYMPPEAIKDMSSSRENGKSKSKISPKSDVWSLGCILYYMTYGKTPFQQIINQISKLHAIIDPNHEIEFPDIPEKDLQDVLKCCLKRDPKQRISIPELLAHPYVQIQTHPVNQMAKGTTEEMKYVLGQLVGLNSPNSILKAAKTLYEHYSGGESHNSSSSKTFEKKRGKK

`CCc1cncc(Nc2snc(C)c2C(=O)Nc2ccc(F)c(F)c2)n1` [Example 76, N-(3,4-Difluorophenyl)-5-[(6-ethylpyrazin-2-yl)amino]-3-methyl-1,2-thiazole-4-carboxamide]: the IC50 in test [1] is 13 nM; at human kinase Mps-1, over 20 µM. Take `CNC(=O)c1ccc(Nc2snc(C)c2C(=O)Nc2ccc(F)c(F)c2)nn1` [Example 80, 6-({4-[(3,4-Difluorophenyl)carbamoyl]-3-methyl-1,2-thiazol-5-yl}amino)-N-methylpyridazine-3-carboxamide]: the IC50 in test [1] is 4700 nM; at human kinase Mps-1 it was over 20 µM. Consider `Cc1nsc(Nc2cncc(-n3cccn3)n2)c1C(=O)Nc1ccc(F)c(F)c1` [Example 64, N-(3,4-Difluorophenyl)-3-methyl-5-{[6-(1H-pyrazol-1-yl)pyrazin-2-yl]amino}-1,2-thiazole-4-carboxamide], for which, in test [1], the IC50 was 110 nM.

Turning to `Cc1nsc(Nc2cnc3cc(C(F)(F)F)ccc3n2)c1C(=O)Nc1ccc(Cl)c(Cl)c1` [Example 61, N-(3,4-Dichlorophenyl)-3-methyl-5-{[6-(trifluoromethyl)quinoxalin-2-yl]amino}-1,2-thiazole-4-carboxamide], the IC50 in test [1] was 340 nM; at human kinase Mps-1, over 20 µM. As to `Cc1nsc(Nc2cncc(C(F)(F)F)n2)c1C(=O)Nc1ccc(F)c(F)c1` [Example 82, N-(3,4-Difluorophenyl)-3-methyl-5-{[6-(trifluoromethyl)pyrazin-2-yl]amino}-1,2-thiazole-4-carboxamide], the figures for the IC50 (in test [1]; on human kinase Mps-1) were 77 nM and over 20 µM, respectively. As to `COc1ccc(NC(=O)c2c(C)nsc2Nc2nc3ccc(F)cc3s2)cn1` [Example 88, 5-[(6-Fluoro-1,3-benzothiazol-2-yl)amino]-N-(6-methoxypyridin-3-yl)-3-methyl-1,2-thiazole-4-carboxamide], in test [1], the IC50 is 1100 nM. Turning to `CNC(=O)c1cncc(Nc2snc(C)c2C(=O)Nc2ccc(F)c(F)c2)n1` [Example 70, 6-({4-[(3,4-Difluorophenyl)carbamoyl]-3-methyl-1,2-thiazol-5-yl}amino)-N-methylpyrazine-2-carboxamide], the IC50 in test [1] was 940 nM; on human kinase Mps-1, over 20 µM.

As to `CCc1cnc(Nc2snc(C)c2C(=O)Nc2ccc(F)c(F)c2)cn1` [Example 79, N-(3,4-Difluorophenyl)-5-[(5-ethylpyrazin-2-yl)amino]-3-methyl-1,2-thiazole-4-carboxamide], the results for the IC50 (in test [1]; on human kinase Mps-1) were 150 nM and over 20 µM, respectively. With `CCc1ccccc1NC(=O)c1c(C)nsc1Nc1cnc2cc(Cl)ccc2n1` [Example 86, 5-[(6-Chloroquinoxalin-2-yl)amino]-N-(2-ethylphenyl)-3-methyl-1,2-thiazole-4-carboxamide], the IC50 in test [1] was 490 nM; on human kinase Mps-1 it was over 20 µM. Consider `COc1ccc(NC(=O)c2c(C)nsc2Nc2ncc(C(=O)N3CCOCC3)s2)cc1F` [Example 93, N-(3-Fluoro-4-methoxyphenyl)-3-methyl-5-{[5-(morpholin-4-ylcarbonyl)-1,3-thiazol-2-yl]amino}-1,2-thiazole-4-carboxamide], for which the IC50 in test [1] was 8000 nM; on human kinase Mps-1, over 20 µM. As for `CCc1ccccc1NC(=O)c1c(C)nsc1Nc1ncccc1C(F)(F)F` [Example 3, N-(2-Ethylphenyl)-3-methyl-5-{[3-(trifluoromethyl)pyridin-2-yl]amino}-1,2-thiazole-4-carboxamide], the IC50 was 5100 nM in test [1] and over 20 µM at human kinase Mps-1.

As for `Cc1nsc(Nc2cnc(Br)cn2)c1C(=O)Nc1ccc(F)c(F)c1` [Example 77, 5-[(5-Bromopyrazin-2-yl)amino]-N-(3,4-difluorophenyl)-3-methyl-1,2-thiazole-4-carboxamide], the IC50 is 8.3 nM in test [1] and over 20 µM at human kinase Mps-1. With `CNC(=O)c1cnc(Nc2snc(C)c2C(=O)Nc2ccc(F)c(F)c2)cn1` [Example 75, 5-({4-[(3,4-Difluorophenyl)carbamoyl]-3-methyl-1,2-thiazol-5-yl}amino)-N-methylpyrazine-2-carboxamide], the IC50 is 58 nM in test [1] and over 20 µM on human kinase Mps-1. As to `Cc1nsc(Nc2cnccn2)c1C(=O)Nc1ccc(F)c(F)c1` [Example 65, N-(3,4-Difluorophenyl)-3-methyl-5-(pyrazin-2-ylamino)-1,2-thiazole-4-carboxamide], the IC50 was 690 nM in test [1] and over 20 µM at human kinase Mps-1. Consider `COc1ccc(NC(=O)c2c(C)nsc2Nc2cnc(C(F)(F)F)cn2)cn1` [Example 85, N-(6-methoxypyridin-3-yl)-3-methyl-5-{[5-(trifluoromethyl)pyrazin-2-yl]amino}-1,2-thiazole-4-carboxamide], for which the values for the IC50 (in test [1]; at human kinase Mps-1) were 52 nM and over 20 µM, respectively. On to `Cc1nsc(Nc2ccc(C(F)(F)F)nn2)c1C(=O)Nc1ccc(F)c(F)c1` [Example 83, N-(3,4-Difluorophenyl)-3-methyl-5-{[6-(trifluoromethyl)pyridazin-3-yl]amino}-1,2-thiazole-4-carboxamide], for which the figures for the IC50 (in test [1]; on human kinase Mps-1) were 9.3 nM and over 20 µM, respectively. `Cc1nsc(Nc2cnc(C(F)(F)F)cn2)c1C(=O)Nc1ccc(F)c(F)c1` [Example 81, N-(3,4-Difluorophenyl)-3-methyl-5-{[5-(trifluoromethyl)pyrazin-2-yl]amino}-1,2-thiazole-4-carboxamide]: the IC50 in test [1] was 16 nM; on human kinase Mps-1 it was over 20 µM. On to `CCOC(=O)c1sc(Nc2snc(C)c2C(=O)Nc2ccc(Cl)c(F)c2)nc1C` [Example 95, Ethyl 2-({4-[(4-chloro-3-fluoro-phenyl)carbamoyl]-3-methyl-1,2-thiazol-5-yl}amino)-4-methyl-1,3-thiazole-5-carboxylate], for which the results for the IC50 (in test [1]; at human kinase Mps-1) were 510 nM and over 20 µM, respectively. For `Cc1nsc(Nc2cnc3cc(C(F)(F)F)ccc3n2)c1C(=O)Nc1ccc(F)c(F)c1` [Example 60, N-(3,4-Difluorophenyl)-3-methyl-5-{[6-(trifluoromethyl)quinoxalin-2-yl]amino}-1,2-thiazole-4-carboxamide], the IC50 was 42 nM in test [1] and over 20 µM at human kinase Mps-1. As for `COc1ccc(NC(=O)c2c(C)nsc2Nc2cnc3ccccc3n2)cn1` [Example 94, N-(6-Methoxypyridin-3-yl)-3-methyl-5-(quinoxalin-2-ylamino)-1,2-thiazole-4-carboxamide], the IC50 in test [1] was 5600 nM; at human kinase Mps-1, over 20 µM. The like results for `Cc1nsc(Nc2nc3c(C(F)(F)F)ccnc3s2)c1C(=O)Nc1ccc(F)c(F)c1` [Example 58, N-(3,4-Difluorophenyl)-3-methyl-5-{[7-(trifluoromethyl)[1,3]thiazolo[5,4-b]pyridin-2-yl]amino}-1,2-thiazole-4-carboxamide] were, in that order, 290 nM and 19 µM. In the case of `CCOC(=O)c1cnc(Nc2snc(C)c2C(=O)Nc2ccccc2CC)s1` [Example 92, Ethyl 2-({4-[(2-ethylphenyl)-carbamoyl]-3-methyl-1,2-thiazol-5-yl}amino)-1,3-thiazole-5-carboxylate], the values for the IC50 (in test [1]; on human kinase Mps-1) were 5600 nM and over 20 µM, respectively. As to `COC(=O)c1cncc(Nc2snc(C)c2C(=O)Nc2ccc(F)c(F)c2)n1` [Example 66, Methyl 6-({4-[(3,4-difluorophenyl)carbamoyl]-3-methyl-1,2-thiazol-5-yl}amino)-pyrazine-2-carboxylate], the figures for the IC50 (in test [1]; at human kinase Mps-1) were 90 nM and over 20 µM, respectively. As to `COc1cncc(Nc2snc(C)c2C(=O)Nc2ccc(F)c(F)c2)n1` [Example 72, N-(3,4-Difluorophenyl)-5-[(6-methoxypyrazin-2-yl)amino]-3-methyl-1,2-thiazole-4-carboxamide], the IC50 in test [1] is 20000 nM; at human kinase Mps-1, over 20 µM. `Cc1nsc(Nc2cncc(-c3ncco3)n2)c1C(=O)Nc1ccc(Cl)c(F)c1` [Example 63, N-(4-Chloro-3-fluorophenyl)-3-methyl-5-{[6-(1,3-oxazol-2-yl)pyrazin-2-yl]amino}-1,2-thiazole-4-carboxamide]: the IC50 in test [1] is 360 nM; on human kinase Mps-1, over 20 µM. For `COC(=O)c1cnc(Nc2snc(C)c2C(=O)Nc2ccc(F)c(F)c2)cn1` [Example 59, Methyl 5-({4-[(3,4-difluorophenyl)carbamoyl]-3-methyl-1,2-thiazol-5-yl}amino)-pyrazine-2-carboxylate], the figures for the IC50 (in test [1]; at human kinase Mps-1) were 260 nM and over 20 µM, respectively. For `CCc1ccccc1NC(=O)c1c(C)nsc1Nc1ccncn1` [Example 2, N-(2-Ethylphenyl)-3-methyl-5-(pyrimidin-4-ylamino)-1,2-thiazole-4-carboxamide], the IC50 is 11000 nM in test [1] and over 20 µM at human kinase Mps-1. Consider `CCc1ccccc1NC(=O)c1c(C)nsc1Nc1cc(C#N)ccn1` [Example 4, 5-[(4-Cyanopyridin-2-yl)amino]-N-(2-ethylphenyl)-3-methyl-1,2-thiazole-4-carboxamide], for which the IC50 was 1700 nM in test [1] and over 20 µM at human kinase Mps-1. The like results for `Cc1nsc(Nc2cncc(Cl)n2)c1C(=O)Nc1ccc(F)c(F)c1` [Example 71, 5-[(6-Chloropyrazin-2-yl)amino]-N-(3,4-difluorophenyl)-3-methyl-1,2-thiazole-4-carboxamide] were, in that order, 84 nM and over 20 µM.

For `CCc1ccccc1NC(=O)c1c(C)nsc1Nc1nc(C(=O)OC)co1` [Example 91, Methyl 2-({4-[(2-ethylphenyl)carbamoyl]-3-methyl-1,2-thiazol-5-yl}amino)-1,3-oxazole-4-carboxylate], in test [1], the IC50 amounted to 1400 nM. Same read-out and setting: to `COc1ccc2nc(Nc3snc(C)c3C(=O)Nc3ccc(OC)nc3)sc2c1` [Example 87, 5-[(6-Methoxy-1,3-benzothiazol-2-yl)amino]-N-(6-methoxypyridin-3-yl)-3-methyl-1,2-thiazole-4-carboxamide] belongs 350 nM.
